How the values were obtained:
[1] = time-resolved singlet oxygen luminescence measurements in water and microemulsions; format: physicochemical; set-up: Integral: unit not given here; settings: for production of singlet oxygen following irradiation with electromagnetic radiation: 5 μM in water or microemulsions; for formation of singlet oxygen in the microemulsions used, times higher than in water: microemulsions versus water; for Integral: singlet oxygen luminescence; for Decay period / Formation time / Relative yield with respect to H2O: singlet oxygen; for Relative yield with respect to H2O: ratio of the integrals
Method: The formation of singlet oxygen following irradiation of a photosensitizer-containing microemulsion was determined using time-resolved singlet oxygen luminescence measurements.
For the relevant measurements, 5 μM of the respective photosensitizers used were dissolved in water or in the emulsions E1 to E4.
The time-resolved singlet oxygen luminescence measurements were carried out in accordance with the methods described in S. Y. Egorov et al., 1999.
A tuneable laser system was used to produce the singlet oxygen (model: NT242-SH/SFG, serial number: PGD048) from EKSPLA (Vilnius, […]). A portion of the monochromatic laser beam produced was directed onto a photodiode which acted as a trigger signal for the time-correlated single photon measurement.
The other part of the laser beam was directed onto a 1 cm thick quartz cell (SUPRASIL, Type 101-QS, Hellma GmbH & Co. KG, Mühlheim, DE), in which the solution to be tested had been disposed.
The formation of singlet oxygen was detected by direct detection of the time- and spectrally-resolved singlet oxygen luminescence.
Singlet oxygen luminescence was carried out by means of a nitrogen-cooled photomultiplier (model R5509-42, Hamamatsu Photonics, Hamamatsu, Japan) and a multiscaler (7886S, FAST Corn Tec GmbH, Oberhaching, Germany).
The singlet oxygen luminescence was detected at a wavelength in the range 1200 nm to 1400 nm using interference filters which were disposed in front of the photomultiplier.
The quantum yield was determined in accordance with the method described in Baier J. et al. (“Singlet Oxygen Generation by UVA Light Exposure of Endogenous Photosensitizers”, Biophys. J. 91(4), 2006, pages 1452 to 1459; doi. 10.1529/biophysj.106.082388).
The relative yield of singlet oxygen for each photosensitizer with respect to the quantity of singlet oxygen formed in water was calculated from the ratio of the integrals.

[2] = tested on: Escherichia coli (E. coli; ATCC Number: 25922); test: phototoxicity measurements (MTT test; colony forming units by Miles and Misra); format: cell-based; settings: for effectiveness against E. coli in a microemulsion compared with water: microemulsion versus water; for reduction in the quantity of E. coli: irradiated
Description: (§1) In order to investigate the phototoxicity of the microemulsions in accordance with the invention, a MTT test was used. Assaying cell vitality using a MTT test is based on the reduction of the yellow, water-soluble dye 3-(4,5-dimethylthiazol-2-yl)-2,5-diphenyltetrazolium bromide (MIT, Sigma-Aldrich Chemie GmbH, Munich, DE) into a blue-violet […] (formazan) which is insoluble in water. MTT is a dye which can pass through membranes, which is metabolized by mitochondrial dehydrogenases in living cells, which in the end leads to the formation of formazan crystals.
(§2) Formazan crystals can no longer pass through the membranes and accumulate in proliferating undamaged cells. After cell lysis and dissolving the crystals, the dye is then quantified by colorimetric measurement at 550 nm in a multi-well spectrophotometer (ELISA reader). The quantity of formazan formed is determined as the optical density (OD). The measured quantity of formazan is directly proportional to the number of proliferating cells, so that this test is suitable for the measurement of the phototoxicity of the microemulsions used. The measured OD can be assigned a cell count by means of a previously determined calibration curve.
(§3) The concentration of the respective photosensitizers TMPyP, SA-PN-01a, SA-PN-02a, SA-PN-24d, FL-AS-H-1a or FL-AS-H-2 in the microemulsions E1 to E4 was 0 μM, 10 μM, 25 μM, 50 μM, 100 μM, 250 μM and 500 μM.
(§4) Furthermore, the respective microemulsions E1 to E4 without photosensitizer were used as a control.
(§5) The phototoxicity measurements were carried out on Escherichia coli (E. coli; ATCC Number: 25922) and Staphylococcus aureus (S. aureus; ATCC Number: 25923), as described by Mosmann (1983). (Mosmann T.: Rapid colorimetric assay for cellular growth and survival: application to proliferation and cytotoxicity assays: J. Immunol. methods. 1983 (65); pages 55-63).
(§6) 25 μL of a suspension of the bacteria used were grown overnight in Müller-Hinton liquid medium (Merck KGaA, Darmstadt, Germany) with an optical density of 0.6 at 600 nm were incubated with 25 μL of the test solution at room temperature for 10 seconds in darkness in a 96-well microtitre plate (Cellstar, Greiner Bio-One, Frickenhausen, Germany).
(§7) Next, the microtitre plate was irradiated for 40 s. For irradiation, the light source Blue V from Waldmann (Villingen-Schwenningen, Germany) was used, which emits light at 380 to 480 nm (emission maximum at approximately 420 nm). The applied power was 20 mW/cm^2.
(§8) For each experiment, three controls were carried out at the same time in order to exclude side effects of the irradiation/photosensitizer (PS) on survival of the bacteria: (i) no PS, only light (=light control), (ii) no light, only PS (=dark control), and (iii) neither light nor PS (=reference control).
(§9) After irradiation had been completed, 75 μL of a 25% by weight SDS solution was added to each well of the microtitre plate and the bacterial cells were lysed overnight at 37° C. in an incubator.
(§10) Finally, the optical density (OD) was determined with the aid of a microtitre plate photometer (model EAR 400 AT, SLT Laborinstruments Austria, Salzburg, AT).
(§11) After lysis of the cells and dissolution of the crystals, the dye could then be quantified in a multi-well spectrophotometer (ELISA-Reader) by colorimetric measurement at 550 nm.
(§12) The determination of the colony forming units was carried out in accordance with the method published by Miles and Misra (Miles, AA; Misra, SS, Irwin, JO (1938 November). “The estimation of the bactericidal power of the blood” The Journal of hygiene 38 (6): 732-49). In this regard, serial dilutions from 10^−2 to 10^−9 of the corresponding bacterial suspension were produced. In each case, 3×20 μL of the corresponding bacterial dilutions were then dropped onto Müller-Hinton plates and incubated at 37° C. for 24 h. Next, the number of surviving colony forming units (CFU) was determined. All of the experiments were carried out three times.

[3] = tested on: Staphylococcus aureus (S. aureus; ATCC Number: 25923); test: as above; format: cell-based; settings: for effectiveness against S. aureus in a microemulsion compared with water: microemulsion versus water; for reduction in the quantity of S. aureus: irradiated
Description: as §1, §2, §3, §4, §5, §6, §7, §8, §9, §10, §11, §12

[4] = absorption spectrum following irradiation with varying doses of light (degradation of photosensitizer); format: physicochemical; settings: light dose 5.5 J to 990 J
Method: The absorption of the FL-AS-H-1a photosensitizer used in the microemulsions E5 and E6 was determined by recording an absorption spectrum for a wavelength range of 250 nm to 600 nm, as described in Example 1. To this end, the FL-AS-H-2 photosensitizer was dissolved in a concentration of 10 μM in the microemulsions E5 and E6, as well as in water. Furthermore, an absorption spectrum of FL-AS-H-2 in microemulsions E5 and E6 as well as in water was measured following irradiation with varying doses of light. For the irradiation, the light source Blue V from Waldmann, which emits light at 380 to 480 nm (emission maximum at approximately 420 nm) was used. The applied light dose was from 5.5 J to 990 J.

[5] = time-resolved singlet oxygen luminescence measurements in gels; format: physicochemical; settings: final concentration 10 μM
[6] = photosensitizer 5 μM in microemulsion E1
[7] = photosensitizer 5 μM in microemulsion E2
[8] = photosensitizer 5 μM in microemulsion E1 (DMS, SDS/1-pentanol (1:2); water)
[9] = photosensitizer 5 μM in microemulsion E2 (DMS, SDS/1,2-pentanediol (1:2); water)
[10] = 10 μM in one of the microemulsions E1 to E4
[11] = in one of the microemulsions E1 to E4, from a concentration of 25 μM
[12] = 10 μM to 100 μM, both in water and in microemulsions E1 to E4, Blue V 40 s, 20 mW/cm^2
[13] = more than 100 μM in water (concentrated aqueous solutions)
[14] = more than 100 μM to 500 μM in microemulsions

Row | SMILES | production of singlet oxygen following irradiation with electromagnetic radiation [1] | formation of singlet oxygen in the microemulsions used, times higher than in water [1] [times] | Integral ([1]; photosensitizer 5 μM in H2O) | Integral [1, 6] | Integral [1, 7] | Decay period ([1]; photosensitizer 5 μM in H2O) [μs] | Formation time ([1]; photosensitizer 5 μM in H2O) [μs] | Decay period [1, 6] [μs] | Formation time [1, 8] [μs] | Decay period [1, 7] [μs] | Formation time [1, 9] [μs] | Relative yield with respect to H2O ([1]; 5 μM in microemulsion E1) | Relative yield with respect to H2O ([1]; 5 μM in microemulsion E2) | reduction in the quantity of E. coli following irradiation [2, 10] | reduction in the quantity of S. aureus following irradiation [3, 10] | effectiveness against E. coli in a microemulsion compared with water [2] | effectiveness against S. aureus in a microemulsion compared with water [3] | other results
1 | Cc1cc2nc3c(=O)[nH]c(=O)nc-3n(CCN)c2cc1C.Cl [FL-AS-H-1a, 10-(2-aminoeth-1-yl)-7,8-dimethyl-[3H,10H]-benzo[g]pteridine-2,4-dione hydrochloride] | produced singlet oxygen | 5 | 366 | 1752 | 1695 | 3.6 | 3.6 | 8.6 | 3.0 | 6.7 | 4.0 | 4.79 | 4.63 | approximately 2 log10 units | approximately 2 log10 units | – | – | –
2 | Cc1cc2nc3c(=O)n(CCN)c(=O)nc-3n(CCN)c2cc1C.Cl.Cl [FL-AS-H-2, 3,10-bis(2′-aminoeth-1′-yl)-7,8-dimethylbenzo[g]pteridine-2,4-dion-dihydrochloride] | – | – | – | – | – | – | – | – | – | – | – | – | – | – | – | – | – | degradation of the photosensitizer following irradiation ([4]; 10 μM in water, microemulsions E5 and E6, Blue V 380 to 480 nm): degraded both in water as well as in the microemulsions E5 and E6; rate of degradation in water compared with microemulsion E5 or E6 ([4]; 10 μM, Blue V): significantly faster
3 | O=C1C(C[n+]2ccccc2)=Cc2cccc3cccc1c23.[Cl-] [SA-PN-01a] | produced singlet oxygen | 7 | 571 | 4413 | 3933 | 3.2 | 2.5 | 9.2 | 1.0 | 7.4 | 1.6 | 7.73 | 6.89 | 3 log10 units | 3 log10 units | more effective | more effective | reduction in the quantity of E. coli following irradiation [2, 11]: more than 6 log10 units; reduction in the quantity of S. aureus following irradiation [3, 11]: more than 6 log10 units
4 | C[N+](C)(C)CC1=Cc2cccc3cccc(c23)C1=O.[Cl-] [SA-PN-02a, N,N,N-trimethyl-1-(1-oxo-1H-phenalen-2-yl)methanaminium chloride] | – | – | – | – | – | – | – | – | – | – | – | – | – | – | – | more effective | more effective | –
5 | CN(CC1=Cc2cccc3cccc(c23)C1=O)C(=N)N.Cl [SA-PN-24d, 1-((1-oxo-1H-phenalen-2-yl)methyl)-1-methylguanidinium chloride] | – | – | – | – | – | – | – | – | – | – | – | – | – | – | – | more effective | more effective | –
6 | C[n+]1ccc(-c2c3nc(c(-c4cc[n+](C)cc4)c4ccc([nH]4)c(-c4cc[n+](C)cc4)c4nc(c(-c5cc[n+](C)cc5)c5ccc2[nH]5)C=C4)C=C3)cc1 [TMPyP, 5,10,15,20-tetrakis(1-methyl-4-pyridyl)-porphyrin-tetra-(p-toluenesulphonate), reference compound] | produced singlet oxygen | – | 985 | 2874 | 1955 | 3.8 | 1.9 | 8.9 | 1.7 | 7.2 | 2.3 | 2.92 | 1.98 | – | – | – | – | destruction of E. coli by the singlet oxygen formed by the irradiation [2, 12]: destroyed; reduction in the quantity of E. coli [2, 13]: 2 log units; reduction in the quantity of E. coli [2, 14]: 5 log10 units; destruction of S. aureus by the singlet oxygen formed by the irradiation [3, 12]: destroyed; reduction in the quantity of S. aureus [3, 13]: 2 log units; reduction in the quantity of S. aureus [3, 14]: 5 log10 units; decay time for the singlet oxygen signal (tD) ([5]; in gel G3): 7.4 μs; rise time for the singlet oxygen signal (tR) ([5]; in gel G3): 2.7 μs; formation of singlet oxygen following irradiation ([5]; in gels G1, G2 and G3): could be detected
